{"source": "patent US20100287625A1", "about": "“VEGF VARIANTS” (UNIVERSITE DE LIEGE, priority 2006, published 2010)", "key": {"VEGF111 mRNA [1]": {"test_system": "VEGF111 mRNA", "experiment": "VEGF111 mRNA in blood cells treated ex vivo, RT-PCR", "type": "cell-based, human", "details": "blood cells of a healthy donor, 1 μM, 6 and 24 hours", "description": "FIG. 8: VEGF111 is expressed in blood cells treated with camptothecin (1 μM) ex vivo. Double arrowhead: internal standard. Vertical arrow indicates amplification products of VEGF111.\nBlood was collected from a healthy donor, and cells were collected by centrifugation. Red blood cells were lyzed and the remaining cells were treated or not with camptothecin (1 μM) for 6 and 24 hours. Untreated cells were also investigated directly after collection. Total VEGF mRNA was measured by RT-PCR as described."}, "VEGF111 mRNA [2]": {"test_system": "VEGF111 mRNA", "experiment": "Induction of VEGF111 mRNA by genotoxic agents, RT-PCR", "type": "cell-based, human", "description": "The indicated cells were treated with UV-B or camptothecin (30 mJ or 1 μM, respectively, except otherwise indicated) for 24 hours (except otherwise indicated) and VEGF and VEGF111 mRNA were measured by RT-PCR. (A) Polyacrylamide gel electrophoresis of RT-PCR products of VEGF (upper panel), VEGF111 (middle panel) and 28S rRNA (lower panel). Arrows in upper panel show the amplification product of VEGF111. The drawings on the right represent the exons (not to scale) in the corresponding VEGF isoforms. C: control cells; Cp: camptothecin treatment; M: 50 bp molecular weight marqueurs; R: cells rinsed with red phenol-free medium; UV: UV-B irradiation; -: non template control; arrowheads: RT-PCR products of synthetic RNA added to the test tubes to monitor reaction efficiency. (B to E) Dose-response analysis (B and D) and kinetic of induction (C and E) of VEGF111 mRNA level in MCF7 cells irradiated by UV-B (B and C) or treated with camptothecin (D and E). The expression of VEGF111 is expressed as the percentage of the signal corresponding to its mRNA taking the overall various VEGF isoforms mRNA, as measured in upper panel of (A) as 100%.\nThe RT-PCR amplifications were performed in an automated system (GeneAmp PCR System 2400 or 9600, Perkin Elmer, Norwalk, Conn.) using the GeneAmp Thermostable rTth Reverse Transcriptase RNA PCR kit (Perkin Elmer), 10 ng of total RNA and the different pairs of primers (5 pmole each, see Table 1). For amplification of VEGF isoforms mRNA and 28S rRNA, a known copy number of an internal standard RNA were included in each sample to monitor the efficiency of the reaction. The RT step (70° C., 15 min.) was followed by a 2 min. incubation at 95° C. for denaturation of RNA/DNA heteroduplexes, PCR amplification and final elongation for 2 min. at 72° C. The conditions for PCR amplification were 94° C. for 15 sec., 66° C. for 20 sec., 72° C. for 10 sec. for 28S rRNA and CD31 mRNA, or 94° C. for 20 sec, 66° C. for 30 sec. and 72° C. for one min for VEGF. RT-PCR products were resolved on 10% polyacrylamide gel and analysed using a Fluor-S MultiImager (BioRad) after staining with gelstar dye (FMC BioProducts, Rockland, Me.). Specific detection of VEGF111 isoform mRNA was performed as follow. mRNA was reverse transcribed using oligodT (Eurogentec, Seraing, Belgium) and Superscript II (Invitrogen) as described by the manufacturer. Reverse transcription (42° C., 50 min.) was followed by denaturation of the enzyme at 70° C. for 15 min. VEGF111 cDNA was amplified by PCR using 40 ng cDNA, the oligos P5 and P6 (Table 1) and Taq polymerase (Takara, Shiga, Japan). The conditions for PCR amplification were 94° C. for 15 sec., 70° C. for 20 sec.,72° C. for 10 sec."}}}
{"smiles": "CC[C@@]1(O)C(=O)OCc2c1cc1n(c2=O)Cc2cc3ccccc3nc2-1", "note": "[Camptothecin]", "values": [{"measurement": "VEGF111 mRNA in blood cells", "setting": "VEGF111 mRNA [1]", "value": "expressed"}, {"measurement": "expression of VEGF111", "setting": "VEGF111 mRNA [2]; 1 μM, HaCat cells and MCF7 cells, by 24 hours, level similar to or higher than after UV-irradiation", "value": "induced"}, {"measurement": "time after which VEGF111 induction reached a plateau", "setting": "VEGF111 mRNA [2]; MCF7 cells, camptothecin", "value": 24, "unit": "h"}, {"measurement": "time after which VEGF111 induction was already detected", "setting": "VEGF111 mRNA [2]; MCF7 cells, camptothecin", "value": 6, "unit": "h"}, {"measurement": "VEGF111 induction, dose-response", "setting": "VEGF111 mRNA [2]; MCF7 cells, with the concentration of camptothecin", "value": "progressively increased"}]}
